Source: paper PMC12087874, “Biaryl Phosphates and Phosphonates as Selective Inhibitors of the Transcription Factor STAT4” (Angewandte Chemie (International Ed. in English), 2025)

Legend:
STAT1 = target: T1, STAT1 (Homo sapiens, UniProt P42224); assay: Competitive fluorescence polarization (FP) assay, STAT1 SH2 domain; format: binding; details: for IC50: mean ± SD, n = 3; for Ki: tracer 5-carboxyfluorescein-GpYDKPHVL, Ki derived from IC50
T1 sequence (P42224 1-750): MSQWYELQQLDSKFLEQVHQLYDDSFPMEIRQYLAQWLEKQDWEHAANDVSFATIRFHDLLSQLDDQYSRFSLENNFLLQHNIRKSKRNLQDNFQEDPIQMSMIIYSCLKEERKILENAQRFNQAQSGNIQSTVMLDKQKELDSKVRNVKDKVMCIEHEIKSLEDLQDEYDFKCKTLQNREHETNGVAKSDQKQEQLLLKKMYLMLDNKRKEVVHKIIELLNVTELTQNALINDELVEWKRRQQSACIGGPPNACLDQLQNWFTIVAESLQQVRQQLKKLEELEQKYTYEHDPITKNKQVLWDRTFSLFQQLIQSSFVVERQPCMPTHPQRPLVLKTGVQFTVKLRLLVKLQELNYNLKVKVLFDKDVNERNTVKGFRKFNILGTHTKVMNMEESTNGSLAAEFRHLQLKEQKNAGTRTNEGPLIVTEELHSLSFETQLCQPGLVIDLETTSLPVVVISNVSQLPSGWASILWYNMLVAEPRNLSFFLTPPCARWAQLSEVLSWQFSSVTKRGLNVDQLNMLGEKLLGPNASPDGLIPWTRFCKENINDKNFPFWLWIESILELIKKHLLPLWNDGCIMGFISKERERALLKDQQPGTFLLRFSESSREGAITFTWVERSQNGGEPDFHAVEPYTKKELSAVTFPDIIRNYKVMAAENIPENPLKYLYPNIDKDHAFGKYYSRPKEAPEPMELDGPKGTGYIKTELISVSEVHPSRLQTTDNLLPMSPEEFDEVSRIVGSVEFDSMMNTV
Method: (§1) Fluorescence polarization assays
(§2) Competitive fluorescence polarization assays, which measure the abilities of test compounds (dissolved in DMSO) to displace a fluorescent-labeled peptide from the SH2 domain of a STAT protein, were carried out essentially as described. Proteins were used at the following final concentrations: 23 nM or 28 nM for STAT4; between 56 nM and 91 nM for STAT1; 107 nM or 110 nM for STAT3; between 131 nM and 177 nM for STAT5a; between 62 nM and 85 nM for STAT5b; and 101 nM or 106 nM for STAT6. These concentrations represent the approximate […]
(§3) dissociation constant for peptide binding of the respective protein batches used in the assays.
(§4) The following peptides were used: 5-carboxyfluorescein-GpYLPQNID-OH for STAT4; 5-carboxyfluorescein-GpYDKPHVL for STAT1; 5-carboxyfluorescein-GpYLPQTV-NH2 for STAT3; 5-carboxyfluorescein-GpYLVLDKW for STAT5a/b, and 5-carboxyfluorescein- […]
(§5) Gp[…]-OH for STAT6. All peptides were used at a final concentration of 10 nM. The buffer consisted of 10 mM Tris (pH 8.0), 50 mM NaCl, 1 mM EDTA, 1 mM DTT, 0 .1 % Nonidet P-40 substitute, and 2 % DMSO. After incubation of protein and test compound for 1 h at room temperature, the fluorescent -labeled peptide was added. Samples were transferred to 384 - well microtiter plates and fluorescence polarization was read after an additional 60 min of incubation time. Measurements were performed in triplicate. Percent binding was calculated based on a logarithmic curve fit using OriginPro 8G software. IC 50 values were converted to Ki-values via the published equation[3] using the corresponding Excel spread sheet […]
(§6) https://websites.umich.edu/~shaomengwanglab/software/calc_ki/index.html .
(§7) Error bars represent standard deviations. Ligand efficiencies (LE) were calculated by the formula LE = -1,37 x log Ki / number of non-hydrogen atoms.[4] […]

STAT5a = target: T2, STAT5a (Homo sapiens, UniProt P42229); assay: Competitive fluorescence polarization (FP) assay, STAT5a SH2 domain; format: binding; details: for Ki: Ki derived from IC50; for IC50: mean ± SD, n = 3
T2 sequence (P42229 1-794): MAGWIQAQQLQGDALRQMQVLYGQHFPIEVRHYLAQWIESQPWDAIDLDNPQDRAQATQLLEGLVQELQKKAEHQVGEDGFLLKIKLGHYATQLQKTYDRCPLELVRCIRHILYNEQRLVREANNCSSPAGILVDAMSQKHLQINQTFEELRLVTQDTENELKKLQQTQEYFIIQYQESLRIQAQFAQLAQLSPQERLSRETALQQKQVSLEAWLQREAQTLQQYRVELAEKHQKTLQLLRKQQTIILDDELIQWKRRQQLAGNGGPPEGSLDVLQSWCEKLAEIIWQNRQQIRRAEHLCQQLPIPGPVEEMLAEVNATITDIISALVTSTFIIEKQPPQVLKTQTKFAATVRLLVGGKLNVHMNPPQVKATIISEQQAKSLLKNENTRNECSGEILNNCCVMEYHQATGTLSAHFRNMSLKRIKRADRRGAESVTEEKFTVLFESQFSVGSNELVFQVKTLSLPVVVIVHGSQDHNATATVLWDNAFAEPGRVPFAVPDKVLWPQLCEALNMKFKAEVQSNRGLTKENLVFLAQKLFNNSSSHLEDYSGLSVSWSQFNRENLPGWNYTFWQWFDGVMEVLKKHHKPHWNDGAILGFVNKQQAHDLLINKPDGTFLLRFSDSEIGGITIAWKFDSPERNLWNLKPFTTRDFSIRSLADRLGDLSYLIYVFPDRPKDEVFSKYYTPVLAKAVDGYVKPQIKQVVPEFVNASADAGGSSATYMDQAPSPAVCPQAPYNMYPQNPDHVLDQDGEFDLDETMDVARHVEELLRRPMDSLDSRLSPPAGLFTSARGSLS
Method: as §1, §2, §3, §4, §5, §6, §7

| Structure (SMILES) | IC50 (STAT1) [µM] | Ki (STAT1) [µM] | Ki (STAT5a) [µM] | IC50 (STAT5a) [µM] |
| --- | --- | --- | --- | --- |
| O=P(O)(O)Oc1ccc(-c2ccccc2)cc1 [Compound 1, para‐biphenyl phosphate] | 16 ± 3 | 8.1 ± 1.4 | 22 ± 2 | 42 ± 4 |
| O=P(O)(O)Oc1ccc(-c2ccc3ccccc3c2)cc1 [Compound 6g] | 22 ± 2 | 11 ± 1 | 27 ± 2 | 55 ± 4 |
| O=P(O)(O)Oc1ccc(-c2ccccc2)cc1F [Compound 6h] | 13 ± 1 | 6.3 ± 0.6 | 28 ± 1 | 57 ± 2 |
| O=P(O)(O)Oc1ccc(-c2ccc3ccccc3c2)cc1F [Compound 6m] | 7.8 ± 0.6 | 3.8 ± 0.3 | 22 ± 1 | 45 ± 2 |
| O=P(O)(O)C(F)(F)c1ccc(-c2ccc3ccccc3c2)cc1F [Compound 8a] | 63 ± 3 | 36 ± 2 | 27 ± 1 | 54 ± 3 |
| Cc1cc(-c2ccc(C(F)(F)P(=O)(O)O)c(F)c2)cs1 [Compound 8k] | 48 ± 4 | 24 ± 2 | 39 ± 1 | 79 ± 2 |
